Data taken from ChEMBL document CHEMBL1201862, “PubChem BioAssay data set” (2004).
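Growth conditions: 96-well plates. Treatment: test compound, 48 hours, 5 concentrations. Analysis: linear interpolation between bracketing concentrations; unreached endpoints set to highest concentration. Abbreviation: GI50, concentration required for 50% inhibition of growth.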 Calls of active or inactive are those of the source. Cut-off read from the data, not from the text of the source: active = GI50 up to about 1.1 µM and inactive = higher.

Tests used:
Assay in all cases: NCI-60 cell line screen, 48 h
[1] = test system: SK-MEL-2
[2] = test system: EKVX
[3] = test system: K562
[4] = test system: LOX IMVI
[5] = test system: DMS-114
[6] = test system: IGROV-1
[7] = test system: HT-29
[8] = test system: KM-20L2
[9] = test system: HOP-62
[10] = test system: RPMI-8226
[11] = test system: UACC-62
[12] = test system: HOP-18
[13] = test system: SNB-75
[14] = test system: UO-31
[15] = test system: MOLT-4
[16] = test system: HOP-92
[17] = test system: NCI/ADR-RES
[18] = test system: SF-268
[19] = test system: CCRF-CEM
[20] = test system: SF-295
[21] = test system: NCI-H226
[22] = test system: UACC-257
[23] = test system: NCI-H23
[24] = test system: M19-MEL
[25] = test system: DLD-1
[26] = test system: OVCAR-4
[27] = test system: OVCAR-5
[28] = test system: SK-MEL-28
[29] = test system: SW-620
[30] = test system: U-251
[31] = test system: HCT-15
[32] = test system: SF-539
[33] = test system: SK-MEL-5
[34] = test system: SNB-78
[35] = test system: A498
[36] = test system: OVCAR-3
[37] = test system: SN12C
[38] = test system: NCI-H522
[39] = test system: KM12
[40] = test system: COLO 205
[41] = test system: SNB-19
[42] = test system: Malme-3M
[43] = test system: HCT-116
[44] = test system: OVCAR-8
[45] = test system: CAKI-1
[46] = test system: MCF7
[47] = test system: DMS-273
[48] = test system: HL-60
[49] = test system: A549
[50] = test system: HCC 2998
[51] = test system: RXF 393
[52] = test system: SK-OV-3
[53] = test system: NCI-H460
[54] = test system: XF498
[55] = test system: M14
[56] = test system: 786-0
[57] = test system: ACHN
[58] = test system: TK-10
[59] = test system: SR

CC(=O)OCc1cc(=O)n(C)c2c3c4c(cc12)c(C)cc(=O)n4CO3
GI50 [1]: 1750 nM (inactive) | GI50 [2]: 2440 nM (inactive) | GI50 [3]: 1140 nM (inactive) | GI50 [4]: 1260 nM (inactive) | GI50 [5]: 1690 nM (inactive) | GI50 [6]: 1210 nM (inactive) | GI50 [7]: 1490 nM (inactive) | GI50 [8]: 2020 nM (inactive) | GI50 [9]: 1200 nM (inactive) | GI50 [10]: 1510 nM (inactive) | GI50 [11]: 1340 nM (inactive) | GI50 [12]: 5330 nM (inactive) | GI50 [13]: 1910 nM (inactive) | GI50 [14]: 1640 nM (inactive) | GI50 [15]: 478 nM (active) | GI50 [16]: 1950 nM (inactive) | GI50 [17]: 1000 nM (active) | GI50 [18]: 782 nM (active) | GI50 [19]: 853 nM (active) | GI50 [20]: 1570 nM (inactive) | GI50 [21]: 1580 nM (inactive) | GI50 [22]: 2050 nM (inactive) | GI50 [23]: 1680 nM (inactive) | GI50 [24]: 1430 nM (inactive) | GI50 [25]: 1370 nM (inactive) | GI50 [26]: 1420 nM (inactive) | GI50 [27]: 2730 nM (inactive) | GI50 [28]: 1640 nM (inactive) | GI50 [29]: 489 nM (active) | GI50 [30]: 1230 nM (inactive) | GI50 [31]: 1950 nM | GI50 [32]: 1030 nM (active) | GI50 [33]: 1660 nM (inactive) | GI50 [34]: 1990 nM (inactive) | GI50 [35]: 2380 nM (inactive) | GI50 [36]: 1450 nM (inactive) | GI50 [37]: 1660 nM (inactive) | GI50 [38]: 711 nM (active) | GI50 [39]: 1230 nM (inactive) | GI50 [40]: 1230 nM (inactive) | GI50 [41]: 1610 nM (inactive) | GI50 [42]: 906 nM (active) | GI50 [43]: 367 nM (active) | GI50 [44]: 555 nM (active) | GI50 [45]: 1950 nM (inactive) | GI50 [46]: 2300 nM (inactive) | GI50 [47]: 982 nM (active) | GI50 [48]: 1400 nM (inactive) | GI50 [49]: 1690 nM (inactive) | GI50 [50]: 1520 nM (inactive) | GI50 [51]: 1300 nM (inactive) | GI50 [52]: 3560 nM (inactive) | GI50 [53]: 520 nM (active) | GI50 [54]: 1170 nM (inactive)

Clc1ccc(C[P+](c2ccccc2)(c2ccccc2)c2ccccc2)cc1Cl
GI50 [1]: 2150 nM (inactive) | GI50 [3]: 4310 nM (inactive) | GI50 [4]: 1550 nM (inactive) | GI50 [5]: 1520 nM (inactive) | GI50 [6]: 2510 nM (inactive) | GI50 [7]: 1910 nM (inactive) | GI50 [8]: 2940 nM (inactive) | GI50 [9]: 9080 nM (inactive) | GI50 [11]: 1490 nM (inactive) | GI50 [12]: 2100 nM (inactive) | GI50 [13]: 1770 nM (inactive) | GI50 [16]: 1620 nM (inactive) | GI50 [55]: 2600 nM (inactive) | GI50 [18]: 3220 nM (inactive) | GI50 [19]: 3070 nM (inactive) | GI50 [20]: 10300 nM (inactive) | GI50 [21]: 2800 nM (inactive) | GI50 [22]: 2140 nM (inactive) | GI50 [23]: 2620 nM (inactive) | GI50 [24]: 1790 nM (inactive) | GI50 [25]: 9200 nM (inactive) | GI50 [26]: 4400 nM (inactive) | GI50 [27]: 5270 nM (inactive) | GI50 [28]: 3670 nM (inactive) | GI50 [29]: 2930 nM (inactive) | GI50 [30]: 1630 nM (inactive) | GI50 [31]: 17000 nM | GI50 [32]: 4400 nM (inactive) | GI50 [33]: 1420 nM (inactive) | GI50 [34]: 25800 nM (inactive) | GI50 [35]: 12600 nM (inactive) | GI50 [36]: 2060 nM (inactive) | GI50 [37]: 4040 nM (inactive) | GI50 [38]: 1890 nM (inactive) | GI50 [56]: 4850 nM (inactive) | GI50 [39]: 2690 nM (inactive) | GI50 [40]: 1550 nM (inactive) | GI50 [41]: 3210 nM (inactive) | GI50 [57]: 13100 nM (inactive) | GI50 [42]: 2530 nM (inactive) | GI50 [58]: 5050 nM (inactive) | GI50 [43]: 1930 nM (inactive) | GI50 [44]: 3050 nM (inactive) | GI50 [59]: 2610 nM (inactive) | GI50 [45]: 2570 nM (inactive) | GI50 [47]: 2010 nM (inactive) | GI50 [48]: 1030 nM (active) | GI50 [49]: 4490 nM (inactive) | GI50 [50]: 2460 nM (inactive) | GI50 [52]: 7350 nM (inactive) | GI50 [53]: 2340 nM (inactive) | GI50 [54]: 1320 nM (inactive)
